Where a name gives a salt, the structure may show the parent alone.
system: K562 cells, human proerythroblast cells; assay: Hemoglobin production in K562 cells (fluorescence of the porphyrin ring); type: cell-based; conditions: 144 h, test compound 6 μM, 3+3 days, non-stimulated state = 100%, read-out: production amount of hemoglobin, % of control (6 μM)
Protocol: K562 cells (obtained from ATCC), which are human proerythroblast cells, were seeded at a density of 1×10^5 cells/1 mL on a 24-well plate by using complete medium (RPMI-1640 medium comprising 10% bovine fetal serum). After adding the test compound having 1000× concentration (1 μL), the cells were incubated for three days in a CO2 incubator (37° C., 5% CO2). After exchanging the medium, the cells were further incubated for three days. Then, the cells were collected and counted. After adjusting them to have 3×10^5 cells, the amount of hemoglobin produced in the cells was determined by measuring fluorescence of the porphyrin ring. Specifically, the cells which had been collected by centrifugation were suspended in 2 M oxalic acid solution (500 μL) and boiled for 30 minutes under heating. After cooling the cells, the fluorescence intensity was measured by Fluorescence micro plate reader (Spectra MAX GeminiEM, manufactured by Molecular Devices Corporation) ([…]). When hemoglobin amount in non-stimulated state, i.e., without addition of any compound, was 100%, the production amount of hemoglobin induced by each compound was calculated (% of control).

Row | Compound | activity at 6 µM [%]
1 | CC(=O)N1CCN(c2ccc(N[C@@H]3C[C@H](C)N(C(C)=O)c4ccccc43)cc2)CC1 (relative stereo) [Compound 77, cis-1-acetyl-4-{[4-(4-acetylpiperazinyl)phenyl]amino}-2-methyl-1,2,3,4-tetrahydroquinoline] | 120
2 | CC(=O)N1c2ccc(N)cc2C(Nc2ccc(Cl)cc2)CC1C (stereo not shown) [Compound 95, 1-acetyl-6-amino-4-[(4-chlorophenyl)amino]-2-methyl-1,2,3,4-tetrahydroquinoline] | 158
3 | COc1ccc(NC2CC(C)N(C(C)=O)c3ccccc32)cc1 (stereo not shown) [Compound 10, 1-acetyl-4-[(4-methoxyphenyl)amino]-2-methyl-1,2,3,4-tetrahydroquinoline] | 409
4 | CC(=O)N1c2ccc(F)cc2C(Nc2ccc(F)cc2)CC1C (stereo not shown) [Compound 5, 1-acetyl-6-fluoro-4-[(4-fluorophenyl)amino]-2-methyl-1,2,3,4-tetrahydroquinoline] | 245
5 | CNC(=O)N1c2ccc(F)cc2C(Nc2ccc(F)cc2)CC1C (stereo not shown) [Compound 65, 6-fluoro-4-[(4-fluorophenyl)amino]-2-methyl-1-N-methylcarbamoyl-1,2,3,4-tetrahydroquinoline] | 461
6 | CC(=O)N1c2ccc(N3CCN(C(=O)NC(C)C)CC3)cc2C(Nc2ccc(Cl)cc2)CC1C (stereo not shown) [Compound 88, 1-acetyl-4-[(4-chlorophenyl)amino]-6-[4-(isopropylaminocarbonyl)piperazino]-2-methyl-1,2,3,4-tetrahydroquinoline] | 112
7 | CC(=O)N1c2ccccc2C(Oc2ccc(N)cc2)CC1C (stereo not shown) [Compound 68, 1-acetyl-4-(4-aminophenoxy)-2-methyl-1,2,3,4-tetrahydroquinoline] | 154
8 | CC(=O)N1c2ccc(NS(C)(=O)=O)cc2C(Nc2ccc(N3CCOCC3)cc2)CC1C (stereo not shown) [Compound 98, 1-acetyl-6-methanesulfonylamino-2-methyl-4-[(4-morpholinophenyl)amino]-1,2,3,4-tetrahydroquinoline] | 56
9 | CC(=O)N1c2ccc(C(N)=O)cc2[C@H](Nc2ccc(CC(N)=O)cc2)C[C@@H]1C (relative stereo) [Compound 106, cis-1-acetyl-4-[(4-carbamoylmethylphenyl)amino]-2-methyl-1,2,3,4-tetrahydroquinoline-6-carboxamide] | 227
10 | CCC1CC(Nc2ccccc2)c2ccccc2N1C(C)=O (stereo not shown) [Compound 59, 1-acetyl-2-ethyl-4-phenylamino-1,2,3,4-tetrahydroquinoline] | 108
11 | CC1CC(Nc2ccc(F)cc2)c2cc(F)ccc2N1C(=O)C1CCCC1 (stereo not shown) [Compound 66, 1-cyclopentanecarbonyl-6-fluoro-2-methyl-4-[(4-fluorophenyl)amino]-1,2,3,4-tetrahydroquinoline] | 151
12 | CC(=O)N1c2cc(F)ccc2[C@H](Nc2cccc(F)c2)C[C@@H]1C (relative stereo) [Compound 58, cis-1-acetyl-7-fluoro-4-[(3-fluorophenyl)amino]-2-methyl-1,2,3,4-tetrahydroquinoline] | 107
13 | COc1ccc2c(c1)C(Nc1ccc(F)cc1)CC(C)N2C(C)=O (stereo not shown) [Compound 37, 1-acetyl-4-[(4-fluorophenyl)amino]-2-methyl-6-methoxy-1,2,3,4-tetrahydroquinoline] | 494
14 | COc1cccc2c1N(C(C)=O)C(C)CC2Nc1ccccc1 (stereo not shown) [Compound 61, 1-acetyl-4-phenylamino-8-methoxy-2-methyl-1,2,3,4-tetrahydroquinoline] | 132

system: HepG2 cells originating from human liver cancer; assay: EPO production in HepG2 cells (EPO ELISA of culture supernatant, 4% oxygen, 48 hrs); type: cell-based; conditions: test compound 3 μM, oxygen 4%, non-stimulated state = 100%, read-out: EPO production amount, % of control (3 μM)
Protocol: HepG2 cells originating from human liver cancer were seeded at a density of 1×10^4 cells per well on a 24-well plate by using minimum essential medium (MEM, manufactured by Sigma) comprising 10% bovine fetal serum. Next day, the medium was exchanged with Dulbecco's modified eagle medium (DMEM, manufactured by Sigma) comprising 10% bovine fetal serum lacking phenol red. Then, the test compound dissolved in DMSO was added thereto to obtain the final concentration of 3 μM or 10 μM while having 400 μl of the medium per well. The cells were incubated for 48 hrs in a CO2 incubator which had been adjusted to have oxygen concentration of 4%, followed by collecting the culture supernatant. The EPO concentration in the culture supernatant was immediately measured by using EPO ELISA kit (manufactured by Roche Diagnostics K.K.). Specific procedures were carried out according to the manufacturer's protocol included in the kit.
When EPO production amount in non-stimulated state, i.e., without addition of any compound, was 100%, the EPO production amount induced by each compound was calculated (% of control).

Row | Compound | activity at 3 µM [%]
15 | CC(=O)N1CCN(c2ccc(N[C@@H]3C[C@H](C)N(C(C)=O)c4ccccc43)cc2)CC1 (relative stereo) [Compound 77, cis-1-acetyl-4-{[4-(4-acetylpiperazinyl)phenyl]amino}-2-methyl-1,2,3,4-tetrahydroquinoline] | 221
16 | CC(=O)N1c2ccc(N)cc2C(Nc2ccc(Cl)cc2)CC1C (stereo not shown) [Compound 95, 1-acetyl-6-amino-4-[(4-chlorophenyl)amino]-2-methyl-1,2,3,4-tetrahydroquinoline] | 213
17 | COc1ccc(NC2CC(C)N(C(C)=O)c3ccccc32)cc1 (stereo not shown) [Compound 10, 1-acetyl-4-[(4-methoxyphenyl)amino]-2-methyl-1,2,3,4-tetrahydroquinoline] | 172
18 | CC(=O)N1c2ccc(F)cc2C(Nc2ccc(F)cc2)CC1C (stereo not shown) [Compound 5, 1-acetyl-6-fluoro-4-[(4-fluorophenyl)amino]-2-methyl-1,2,3,4-tetrahydroquinoline] | 205
19 | CNC(=O)N1c2ccc(F)cc2C(Nc2ccc(F)cc2)CC1C (stereo not shown) [Compound 65, 6-fluoro-4-[(4-fluorophenyl)amino]-2-methyl-1-N-methylcarbamoyl-1,2,3,4-tetrahydroquinoline] | 414
20 | CC(=O)N1c2ccc(C(N)=O)cc2C(Nc2ccc(Cl)cc2)CC1C (stereo not shown) [Compound 43, 1-acetyl-4-[(4-chlorophenyl)amino]-2-methyl-1,2,3,4-tetrahydroquinoline-6-carboxamide] | 452
21 | CC(=O)N1c2ccccc2C(Nc2ccc(-c3ccccc3)cc2)CC1C (stereo not shown) [Compound 25, 1-acetyl-2-methyl-4-[(1,1′-biphenyl-4-yl)amino]-1,2,3,4-tetrahydroquinoline] | 242
22 | CC(=O)N1c2ccccc2C(Nc2ccc(C)cc2)CC1C (stereo not shown) [Compound 51, 1-acety1-4-[(4-methylphenyl)amino]-2-methyl-1,2,3,4-tetrahydroquinoline] | 239
23 | CC(=O)N1c2ccc(C)cc2C(Nc2ccc(C)cc2)CC1C (stereo not shown) [Compound 2, 1-acetyl-2,6-dimethyl-4-[(4-methylphenyl)amino]-1,2,3,4-tetrahydroquinoline] | 167
24 | CC(=O)N1c2ccccc2C(Nc2cccc(C)c2)CC1C (stereo not shown) [Compound 50, 1-acety1-4-[(3-methylphenyl)amino]-2-methyl-1,2,3,4-tetrahydroquinoline] | 289
25 | CONC(=O)c1ccc2c(c1)C(Nc1ccc(Cl)cc1)CC(C)N2C(C)=O (stereo not shown) [Compound 118, 1-acetyl-4-[(4-chlorophenyl)amino]-N-methoxy-2-methyl-1,2,3,4-tetrahydroquinoline-6-carboxamide.hydrochloride] | 138
26 | CC(=O)N1c2ccc(N3CCN(S(C)(=O)=O)CC3)cc2C(Nc2ccc(Cl)cc2)CC1C (stereo not shown) [Compound 80, 1-acetyl-6-[(4-methanesulfonyl)piperazino]-4-[(4-chlorophenyl)amino]-2-methyl-1,2,3,4-tetrahydroquinoline] | 219
27 | CC(=O)N1c2ccc(N3CCN(C(C)C)CC3)cc2C(Nc2ccc(Cl)cc2)CC1C (stereo not shown) [Compound 81, 1-acetyl-4-[(4-chlorophenyl)amino]-6-[(4-isopropyl)piperazino]-2-methyl-1,2,3,4-tetrahydroquinoline] | 234
28 | CC(=O)N1c2ccc(F)cc2C(Nc2ccc(CC(=O)O)cc2)CC1C (stereo not shown) [Compound 123, 1-acetyl-4-[(4-carboxymethylphenyl)amino]-6-fluoro-2-methyl-1,2,3,4-tetrahydroquinoline] | 142
29 | CC(=O)N1c2ccc(C#N)cc2C(Nc2ccc(Cl)cc2)CC1C (stereo not shown) [Compound 117, 1-acetyl-4-[(4-chlorophenyl)amino]-6-cyano-2-methyl-1,2,3,4-tetrahydroquinoline] | 204
30 | CC(=O)N1c2ccccc2C(Oc2ccc(N3CCOCC3)cc2)CC1C (stereo not shown) [Compound 55, 1-acetyl-4-(4-morpholinophenoxy)-2-methyl-1,2,3,4-tetrahydroquinoline] | 134
31 | CC(=O)N1c2ccccc2C(Nc2ccc(C(F)(F)F)cc2)CC1C (stereo not shown) [Compound 52, 1-acetyl-2-methyl-4-[(4-trifluoromethylphenyl)amino]-1,2,3,4-tetrahydroquinoline] | 314
32 | CC(=O)N1c2ccccc2C(Nc2ccccc2C)CC1C (stereo not shown) [Compound 49, 1-acetyl-4-[(2-methylphenyl)amino]-2-methyl-1,2,3,4-tetrahydroquinoline] | 271
33 | CCOC(=O)Cc1ccc(NC2CC(C)N(C(C)=O)c3ccccc32)cc1 (stereo not shown) [Compound 70, 1-acetyl-4-[(4-ethoxycarbonylmethylphenyl)amino]-2-methyl-1,2,3,4-tetrahydroquinoline] | 165
34 | CC(=O)N1c2ccccc2C(Nc2ccc(O)cc2)CC1C (stereo not drawn) [Compound 24, cis-1-acetyl-4-[(4-hydroxyphenyl)amino]-2-methyl-1,2,3,4-tetrahydroquinoline.hydrochloride] | 117

Source: patent US20130172345A1, “1-ACYL-4-(PHENOXY, BENZYLOXY, OR PHENYLAMINO)-1,2,3,4-TETRAHYDROQUINOLINE DERIVATIVES” (KOWA COMPANY, LTD., priority 2007, published 2013)
